Measurements published in US11702418B2, “SOS1 inhibitors” (priority 2019, dated 2023).
Where a name gives a salt, the structure may show the parent alone. Read-outs that look alike come from different tables or passages of the source.

Experiments:
pERK in MKN1 cells = test: cells; type: cell-based
[1] = molecular target: recombinant human SOS1 polypeptide (amino acids 560-1049) (Homo sapiens (Human), UniProt Q07889); test: biochemical; type: binding; details: read-out: Ki, Inhibition of Labeled Tracer Binding to SOS1
Chain of recombinant human SOS1 polypeptide (amino acids 560-1049) (Q07889 560-1049): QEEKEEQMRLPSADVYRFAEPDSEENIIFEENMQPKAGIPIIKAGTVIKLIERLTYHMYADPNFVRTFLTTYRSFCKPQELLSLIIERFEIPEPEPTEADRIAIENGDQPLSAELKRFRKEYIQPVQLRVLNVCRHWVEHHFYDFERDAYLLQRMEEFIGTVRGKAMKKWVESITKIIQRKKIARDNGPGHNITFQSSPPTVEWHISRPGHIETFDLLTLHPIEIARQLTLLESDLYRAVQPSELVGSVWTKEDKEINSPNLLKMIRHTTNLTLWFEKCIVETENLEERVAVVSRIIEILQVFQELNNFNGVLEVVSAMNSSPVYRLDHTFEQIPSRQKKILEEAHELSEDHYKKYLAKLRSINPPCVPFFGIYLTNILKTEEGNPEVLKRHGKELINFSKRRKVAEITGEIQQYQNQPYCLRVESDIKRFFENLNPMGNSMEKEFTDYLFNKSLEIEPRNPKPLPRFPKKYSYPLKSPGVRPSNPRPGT
Method: The ability of a compound of Formula (I) to bind to SOS1 was measured using a HTRF displacement assay. […] After a 1-hour incubation at room temperature, the HTRF signal was measured using Clairostar plate reader (BMG Labtech) according to the manufacturer's instructions. Excitation filter EX-TR was used, and emission 1 was detected at 650-610 nm and emission 2 detected at 620-610 nm. The HTRF ratio was calculated using the formula: [emission 1/emission 2]*10000.
Background signals were calculated from well with a 10 μM inhibitor, known to inhibit 100% at that concentration. The background subtracted signals were converted to % binding relative to DMSO controls. Data were analyzed using XLFIT software (IDBS) using a Morrison equation for competitive binding and Ki's were generated compound of Formula (I).

[2] = Homo sapiens, MKN-1, pERK inhibition, In-Cell Western, MKN1 or H358 cells (Table 24 does not say which), 0.5-1 hour incubation, read-out: IC50
[3] = HTRF displacement, Cy5 labelled tracer, Morrison equation for competitive binding

| Molecule | IC50 (pERK in MKN1 cells; [2]) [nM] | further results |
| --- | --- | --- |
| Cc1c([C@@H](C)Nc2nnc(C)c3cnc(N4CC(C)(N(C)C)C4)cc23)cccc1C(F)(F)F [Example 12-19] | 59 | Ki [1, 3]: 1 nM |
| Cc1c([C@@H](C)Nc2nnc(C)c3cnc(O[C@H]4CCN(C)C4)cc23)cccc1C(F)(F)F [Example 12-11] | 142 | Ki [1, 3]: 8.76 nM |
| Cc1c(F)cccc1[C@@H](C)Nc1nnc(C)c2cnc(N3CC(C)(N(C)C)C3)cc12 [Example 12-82] | 330 | Ki [1, 3]: 20.9 nM |
| Cc1c([C@@H](C)Nc2nnc(C)c3cnc(OC4CN(C)C4)cc23)cccc1C(F)(F)F [Example 12-12] | 249 | Ki [1, 3]: 21.6 nM |
| CNCc1nnc(N[C@H](C)c2cccc(C(F)(F)F)c2C)c2cc(N3C[C@H]4C[C@@H]3CO4)ncc12 [Example 14-5, 7-((1R,4R)-2-oxa-5-azabicyclo[2.2.1]heptan-5-yl)-N-((R)-1-(2-methyl-3-(trifluoromethyl)phenyl)ethyl)-4-((methylamino)methyl)pyrido[3,4-d]pyridazin-1-amine] | 70 | Ki [1, 3]: 2.54 nM |
| Cc1nnc(N[C@H](C)c2cc(N)cc(C(F)(F)F)n2)c2cc(N3C[C@H]4CC[C@@H]3CN4C)ccc12 [Example 16-5, N-((R)-1-(4-amino-6-(trifluoromethyl)pyridin-2-yl)ethyl)-4-methyl-7-((1R, 4R)-5-methyl-2,5-diazabicyclo[2.2.2]octan-2-yl)phthalazin-1-amine] | 71 | Ki [1, 3]: 5.5 nM |
| Cc1c([C@@H](C)Nc2nnc(C)c3ccc(C4CCNC(=O)C4)cc23)cccc1C(F)(F)F (stereo partly drawn) [Example 10-3, 4-(1-methyl-4-(((R)-1-(2-methyl-3-(trifluoromethyl)phenyl)ethyl)amino)phthalazin-6-yl)piperidin-2-one] | 85 | Ki [1, 3]: 0.71 nM |
| Cc1c(C#N)cccc1[C@@H](C)Nc1nnc(C)c2ccc(N3CCN4CCOC[C@@H]4C3)cc12 [Example 10-56, 3-((R)-1-((7-((S)-hexahydropyrazino[2,1-c][1,4]oxazin-8(1H)-yl)-4-methylphthalazin-1-yl)amino)ethyl)-2-methylbenzonitrile Formate salt] |  | IC50 (pERK in MKN1 cells; Homo sapiens, MKN-1): 26 nM; Ki [1]: 1.59 nM |
| COc1c(C#N)cccc1[C@@H](C)Nc1nnc(C)c2ccc(N3CC(C)(O)C3)cc12 [Example 17-4, (R)-3-(1-((7-(3-hydroxy-3-methlazetidin-1-yl)-4-methylpyridazin-1-yl)amino)ethyl)-2-methoxybenzonitrile] | 116 | Ki [1, 3]: 14.4 nM |
| Cc1c(C#N)cccc1[C@@H](C)Nc1nnc(C)c2ccc(N3C[C@H]4C[C@@H]3CO4)cc12 [Example 10-54, 3-((R)-1-((7-((1R,4R)-2-oxa-5-azabicyclo[2.2.1]heptan-5-yl)-4-methylphthalazin-1-yl)amino)ethyl)-2-methylbenzonitrile Formate salt] |  | IC50 (pERK in MKN1 cells; Homo sapiens, MKN-1): 48 nM; Ki [1]: 1.34 nM |
| Cc1nnc(N[C@H](C)c2ccc(F)cc2F)c2cc(N3CC(C)(N(C)C)C3)ncc12 [Example 12-49] | 161 | Ki [1, 3]: 39.7 nM |
| Cc1c([C@@H](C)Nc2nncc3ccc(N4CCC5C(CCCN5C)C4)cc23)cccc1C(F)(F)F (stereo partly drawn) [Example 1-42, N-((R)-1-(2-methyl-3-(trifluoromethyl)phenyl)ethyl)-7-(1-methyloctahydro-1,6-naphthyridin-6(2H)-yl)phthalazin-1-amine] | 201 |  |
| Cc1c([C@@H](C)Nc2nnc(C)c3cnc(N4C[C@@H](C)O[C@@H](C)C4)cc23)cccc1C(F)(F)F [Example 12-4] | 370 |  |
| Cc1c([C@@H](C)Nc2nnc(C)c3ccc(-n4cccn4)cc23)cccc1C(F)(F)F [Example 10-17, (R)-4-methyl-N-(1-(2-methyl-3-(trifluoromethyl)phenyl)ethyl)-7-(1H-pyrazol-1-yl)phthalazin-1-amine] | 2630 |  |
| Cc1c([C@@H](C)Nc2nncc3ccc(OC4CCN(C)C4)cc23)cccc1C(F)(F)F (stereo partly drawn) [Example 2-7, N-((R)-1-(2-methyl-3-(trifluoromethyl)phenyl)ethyl)-7-((1-methylpyrrolidin-3-yl)oxy)phthalazin-1-amine] | 142 |  |
| Cc1c([C@@H](C)Nc2nnc(CN)c3ccc(N4CCOCC4)cc23)cccc1C(F)(F)F [Example 14-2, (R)-4-(aminomethyl)-N-(1-(2-methyl-3-(trifluoromethyl)phenyl)ethyl)-7-morpholinophthalazin-1-amine] |  | IC50 (pERK in MKN1 cells; Homo sapiens, MKN-1, pERK inhibition, In-Cell Western, MKN1 or H358 cells (Table 24 does not say which), 0.5-1 hour incubation): 139 nM |
| Cc1c([C@@H](C)Nc2nncc3ccc(N4CCCN(C)CC4)cc23)cccc1C(F)(F)F [Example 1-29, (R)-7-(4-methyl-1,4-diazepan-1-yl)-N-(1-(2-methyl-3-(trifluoromethyl)phenyl)ethyl)phthalazin-1-amine] | 71 |  |

| Molecule | IC50 (pERK in MKN1 cells; [2]) [nM] | further results |
| --- | --- | --- |
| Cc1c([C@@H](C)Nc2nncc3ccc(N4CCn5c(nc6c5CCCC6)C4)cc23)cccc1C(F)(F)F [Example 1-45, (R)-7-(3,4,6,7,8,9-hexahydrobenzo[4,5]imidazo[1,2-a]pyrazin-2(1H)-yl)-N-(1-(2-methyl-3-(trifluoromethyl)phenyl)ethyl)phthalazin-1-amine] | 335 |  |
| Cc1c([C@@H](C)Nc2nncc3ccc(N4CC(C(=O)N(C)C)C4)cc23)cccc1C(F)(F)F [Example 1-24, (R)-N,N-dimethyl-1-(4-((1-(2-methyl-3-(trifluoromethyl)phenyl)ethyl)amino)phthalazin-6-yl)azetidine-3-carboxamide] | 25 |  |
| Cc1cc(C)n(-c2ccc3c(C)nnc(N[C@H](C)c4cccc(C(F)(F)F)c4C)c3c2)n1 [Example 10-14, (R)-7-(3,5-dimethyl-1H-pyrazol-1-yl)-4-methyl-N-(1-(2-methyl-3-(trifluoromethyl)phenyl)ethyl)phthalazin-1-amine] | 1150 |  |
| Cc1c([C@@H](C)Nc2nncc3ccc(N4CCC5(CCCN(C)C5)C4)cc23)cccc1C(F)(F)F (stereo partly drawn) [Example 1-34, N-((R)-1-(2-methyl-3-(trifluoromethyl)phenyl)ethyl)-7-(7-methyl-2,7-diazaspiro[4.5]decan-2-yl)phthalazin-1-amine] | 119 |  |
| Cc1c([C@@H](C)Nc2nncc3ccc(N4CCOC5(CCOC5)C4)cc23)cccc1C(F)(F)F (stereo partly drawn) [Example 1-41, N-((R)-1-(2-methyl-3-(trifluoromethyl)phenyl)ethyl)-7-(2,6-dioxa-9-azaspiro[4.5]decan-9-yl)phthalazin-1-amine] | 195 |  |
| Cc1c([C@@H](C)Nc2nncc3ccc(OC4CC5CCC(C4)N5C)cc23)cccc1C(F)(F)F (stereo partly drawn) [Example 2-10, N-((R)-1-(2-methyl-3-(trifluoromethyl)phenyl)ethyl)-7-((8-methyl-8-azabicyclo[3.2.1]octan-3-yl)oxy)phthalazin-1-amine] | 223 |  |
| Cc1c([C@@H](C)Nc2nncc3ccc(N4CCC5(CCN(C)C5)C4)cc23)cccc1C(F)(F)F (stereo partly drawn) [Example 1-39, N-((R)-1-(2-methyl-3-(trifluoromethyl)phenyl)ethyl)-7-(7-methyl-2,7-diazaspiro[4.4]nonan-2-yl)phthalazin-1-amine] | 170 |  |
| Cc1nnc(N[C@H](C)c2ccc(Cl)cc2Cl)c2cc(N3CCOCC3)ccc12 [Example 10-20, (R)-N-(1-(2,4-dichlorophenyl)ethyl)-4-methyl-7-morpholinophthalazin-1-amine] | 1650 |  |
| Cc1c([C@@H](C)Nc2nnc(C)c3ccc(C4CCNCC4)cc23)cccc1C(F)(F)F [Example 10-1, (R)-4-methyl-N-(1-(2-methyl-3-(trifluoromethyl)phenyl)ethyl)-7-(piperidin-4-yl)phthalazin-1-amine] |  | IC50 (pERK in MKN1 cells; Homo sapiens, MKN-1): 183 nM |
| Cc1c([C@@H](C)Nc2nnc(C)c3ccc(-n4ncc5c4CNC5)cc23)cccc1C(F)(F)F [Example 10-15, (R)-7-(5,6-dihydropyrrolo[3,4-c]pyrazol-1(4H)-yl)-4-methyl-N-(1-(2-methyl-3-(trifluoromethyl)phenyl)ethyl)phthalazin-1-amine] | 844 |  |
| Cc1c([C@@H](C)Nc2nnc(C)c3cnc(N4C[C@@H](C)O[C@H](C)C4)cc23)cccc1C(F)(F)F [Example 12-5] | 850 |  |
| Cc1c([C@@H](C)Nc2nncc3ccc(N4CCCC(N(C)C)C4)cc23)cccc1C(F)(F)F (stereo partly drawn) [Example 1-36, 7-(3-(dimethylamino)piperidin-1-yl)-N-((R)-1-(2-methyl-3-(trifluoromethyl)phenyl)ethyl)phthalazin-1-amine] | 125 |  |
| Cc1c([C@@H](C)Nc2nncc3ccc(N4CC5CCN(C)CC5C4)cc23)cccc1C(F)(F)F (stereo partly drawn) [Example 1-31, N-((R)-1-(2-methyl-3-(trifluoromethyl)phenyl)ethyl)-7-(5-methyloctahydro-2H-pyrrolo[3,4-c]pyridin-2-yl)phthalazin-1-amine] | 83 |  |
| 4-methyl-N—((R)-1-(5-(2-((methylamino)methyl(phenyl)thiophen-2-yl)ethyl)-7-(((S)-tetrahydrofuran-3-yl)oxy)phthalazin-1-amine [Example 7-1] |  | IC50 (pERK in MKN1 cells; read-out: IC50): 79 nM |
| Cc1nnc(N[C@H](C)c2ccc(Cl)cc2Cl)c2cc(N3CCNCC3)ccc12 [Example 10-21, (R)-N-(1-(2,4-dichlorophenyl)ethyl)-4-methyl-7-(piperazin-1-yl)phthalazin-1-amine] | 444 |  |
| Cc1c([C@@H](C)Nc2nncc3ccc(N4CCC5C(CCN5C)C4)cc23)cccc1C(F)(F)F (stereo partly drawn) [Example 1-35, N-((R)-1-(2-methyl-3-(trifluoromethyl)phenyl)ethyl)-7-(1-methyloctahydro-5H-pyrrolo[3,2-c]pyridin-5-yl)phthalazin-1-amine] | 123 |  |
| Cc1c([C@@H](C)Nc2nncc3ccc(N4CCN(C)C(=O)C4)cc23)cccc1C(F)(F)F [Example 1-30, (R)-1-methyl-4-(4-((1-(2-methyl-3-(trifluoromethyl)phenyl)ethyl)amino)phthalazin-6-yl)piperazin-2-one] | 79 |  |
